Experimental data: US20100183754A1, “Extract and compound for blood pressure regulation” (Taipei Medical University, priority 2009, published 2010)
pIC50: −log10 of the molar value.

Assays:
ACE = ACE (Homo sapiens, UniProt P12821); test: In vitro ACE inhibiting assay; type: biochemical; conditions: for ACE inhibiting activity (FIG. 11): purified in example 5, various concentrations
Text: Wherein, the data of TC-1 to TC-4 are obtained from the whole plant extracts of Vitis thunbergii var. taiwaniana cultured by various plant growth substrates, respectively.
Moreover, the hot water extract of the Vitis thunbergii var. taiwaniana tea powder obtained in example 2 is used to perform the same ACE inhibiting assay, as shown in FIG. 6. […] Method A: culturing the tissue culture plantlet for 30 days, replacing the old culture medium with new culture medium, and then culturing the plantlet for another 60 days; in which the plantlet were cultured for 90 days. Method B: culturing the tissue culture plantlet for 30 days, directly adding the new culture medium onto the old culture medium, and then culturing for another 60 days; in which the plantlet were cultured for 90 days.
Various concentration of (+)-vitisin A and ampelopsin C purified in example 5 were used to perform ACE inhibiting activity assay.

[1] = test system: spontaneous hypertensive rats (SHRs); test: 24-hour blood pressure test of SHRs after single oral administration; type: in vivo, rat; conditions: single oral administration 10 mg/kg, versus control fed distilled water
Protocol: The Vitis thunbergii var. taiwaniana extracts of the present invention were used in the in vivo blood pressure regulation assay. The present embodiment was performed on 24 heads of five- to six-week old male spontaneous hypertensive rats (SHRs). The rats were housed for 7 weeks and then used for the assay while they were about twelve- to thirteen-week old. The SHRs were randomly divided into experimental group (12 heads of SHRs) and control group (12 heads of SHRs). The rats of the experimental group were fed with the Vitis thunbergii var. taiwaniana extract obtained in example 1, and the rats of the control group were fed with distilled water for instead. After oral administration by feeding tube, the blood pressure of all SHRs was measured for a certain time interval.
Similarly, the hot water extract of the roots and stems of the Vitis thunbergii var. taiwaniana cultivated in field for 5 to 6 months, which was transferred from tissue culture plantlets, was used in a 24-hour blood pressure test, as shown in FIG. 7 (the rats of the control group were fed with distilled water).
Moreover, the blood pressure of the SHRs fed with (+)-vitisin A purified in example 5 was measured during 24 hours after single oral administration.

Sequence of ACE (P12821 30-1306, species assumed): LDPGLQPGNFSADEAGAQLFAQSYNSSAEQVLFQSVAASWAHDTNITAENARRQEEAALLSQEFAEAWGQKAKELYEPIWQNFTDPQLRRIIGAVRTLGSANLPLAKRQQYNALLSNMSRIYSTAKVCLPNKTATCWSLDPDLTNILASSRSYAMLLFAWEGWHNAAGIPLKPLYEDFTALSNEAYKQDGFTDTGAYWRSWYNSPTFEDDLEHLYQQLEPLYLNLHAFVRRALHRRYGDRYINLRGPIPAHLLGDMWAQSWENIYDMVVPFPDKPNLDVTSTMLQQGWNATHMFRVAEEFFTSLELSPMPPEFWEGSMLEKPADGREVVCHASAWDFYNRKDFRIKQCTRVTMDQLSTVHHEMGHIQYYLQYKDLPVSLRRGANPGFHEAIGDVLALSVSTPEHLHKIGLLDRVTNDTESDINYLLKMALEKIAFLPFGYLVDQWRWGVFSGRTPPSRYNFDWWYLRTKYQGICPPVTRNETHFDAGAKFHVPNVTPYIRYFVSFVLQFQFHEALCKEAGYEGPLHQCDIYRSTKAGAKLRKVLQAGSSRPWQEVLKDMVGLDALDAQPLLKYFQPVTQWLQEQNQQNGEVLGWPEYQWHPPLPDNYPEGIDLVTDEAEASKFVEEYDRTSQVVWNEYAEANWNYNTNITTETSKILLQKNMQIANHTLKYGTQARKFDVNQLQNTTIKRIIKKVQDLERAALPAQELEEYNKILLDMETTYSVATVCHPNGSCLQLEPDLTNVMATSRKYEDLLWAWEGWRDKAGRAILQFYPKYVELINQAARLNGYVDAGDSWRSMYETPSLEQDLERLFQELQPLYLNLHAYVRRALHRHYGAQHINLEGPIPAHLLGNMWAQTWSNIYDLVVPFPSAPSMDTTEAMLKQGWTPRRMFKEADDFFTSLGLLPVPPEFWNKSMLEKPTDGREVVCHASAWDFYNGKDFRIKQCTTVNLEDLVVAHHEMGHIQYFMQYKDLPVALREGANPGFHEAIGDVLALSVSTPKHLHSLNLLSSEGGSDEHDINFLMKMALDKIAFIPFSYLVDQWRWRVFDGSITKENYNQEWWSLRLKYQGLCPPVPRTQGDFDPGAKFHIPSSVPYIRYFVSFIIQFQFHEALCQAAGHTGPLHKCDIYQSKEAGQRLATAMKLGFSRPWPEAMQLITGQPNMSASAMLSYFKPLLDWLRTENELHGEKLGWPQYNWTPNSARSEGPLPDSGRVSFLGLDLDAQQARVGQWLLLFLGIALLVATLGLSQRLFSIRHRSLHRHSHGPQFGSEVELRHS

| SMILES | pIC50 (ACE; purified in example 5, FIG. 11) | ACE inhibiting activity (FIG. 11) (ACE) | blood pressure of SHRs in the period of 24 hours (FIG. 12) [1] |
| --- | --- | --- | --- |
| Oc1ccc([C@H]2c3c(O)cc4c5c3[C@@H]([C@H](c3ccc(O)cc3)c3c(O)cc(O)cc3[C@H]5[C@H](c3ccc(O)cc3)O4)[C@@H]2c2cc(O)cc(O)c2)cc1 [ampelopsin C] | 4.74 | obviously have ACE inhibiting activity |  |
| Oc1ccc([C@H]2c3c(O)cc(O)cc3[C@H]3c4c(cc(O)cc4[C@@H]2c2cc(/C=C/c4cc(O)cc5c4[C@H](c4cc(O)cc(O)c4)[C@@H](c4ccc(O)cc4)O5)ccc2O)O[C@@H]3c2ccc(O)cc2)cc1 [(+)-vitisin A] |  | obviously have ACE inhibiting activity | decreases significantly |
